In ChEMBL document CHEMBL1201862, “PubChem BioAssay data set” (2004):
Calls of active or inactive are those of the source.

What was measured:
[1] = test system: Streptococcus sp. 'group A'; assay: Streptococcus pyogenes SK(-)GAS viability under kanamycin – luminescence, BacTiterGlo, confirmation, counter-screen for streptokinase expression inhibitor project, dose response (AID 1900); format: functional, organism-based
Streptokinase A = target: T1, Streptokinase A (Streptococcus pyogenes serotype M1, UniProt P10520); assay: viability-normalized secreted streptokinase activity reduction – plasminogen activation absorbance, OD405, dose response (AID 1914); format: functional, Streptococcus pyogenes M1 GAS;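 further: secreted streptokinase activity via plasminogen activation per viability signal from cell pellet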
T1 sequence (P10520 whole entry): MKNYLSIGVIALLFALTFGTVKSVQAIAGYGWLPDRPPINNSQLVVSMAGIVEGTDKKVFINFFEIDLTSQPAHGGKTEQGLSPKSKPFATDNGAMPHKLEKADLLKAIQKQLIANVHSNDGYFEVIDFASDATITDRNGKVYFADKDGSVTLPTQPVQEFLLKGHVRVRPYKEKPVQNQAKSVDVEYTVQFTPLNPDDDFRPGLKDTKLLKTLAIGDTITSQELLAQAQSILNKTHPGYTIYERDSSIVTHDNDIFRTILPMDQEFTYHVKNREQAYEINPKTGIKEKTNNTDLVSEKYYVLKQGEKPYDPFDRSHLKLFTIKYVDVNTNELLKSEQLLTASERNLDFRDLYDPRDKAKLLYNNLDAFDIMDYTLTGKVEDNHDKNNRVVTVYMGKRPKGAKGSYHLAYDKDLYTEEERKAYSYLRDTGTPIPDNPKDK

Streptococcus = assay: GAS UMAA2166 growth inhibition – luminescence, BacTiterGlo, counter-screen for streptokinase expression inhibitor project, dose response (AID 1915); format: functional, organism-based;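 further: potency for reduction of bacterial viability or growth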
[2] = Luminescence Cell-Based Dose Retest to Confirm Inhibitors of Cancer Stem Cells. [Related pubchem assays (depositor defined):AID2717, AID2721]; format: functional; conditions: Homo sapiens
[3] = reduced cellular PGC1a acetyl-lysine signal – cell-based, cherry-picked samples, dose response (AID 720514); format: functional;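 further: potency may reflect raised or lowered acetylation signal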
Coagulation factor XII = target: T2, Coagulation factor XII (Homo sapiens, UniProt P00748); format: functional;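 further: activated factor XIIa alpha cleaving a fluorogenic AMC peptide substrate; inhibitor potency from loss of enzyme activity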
T2 sequence (P00748 whole entry): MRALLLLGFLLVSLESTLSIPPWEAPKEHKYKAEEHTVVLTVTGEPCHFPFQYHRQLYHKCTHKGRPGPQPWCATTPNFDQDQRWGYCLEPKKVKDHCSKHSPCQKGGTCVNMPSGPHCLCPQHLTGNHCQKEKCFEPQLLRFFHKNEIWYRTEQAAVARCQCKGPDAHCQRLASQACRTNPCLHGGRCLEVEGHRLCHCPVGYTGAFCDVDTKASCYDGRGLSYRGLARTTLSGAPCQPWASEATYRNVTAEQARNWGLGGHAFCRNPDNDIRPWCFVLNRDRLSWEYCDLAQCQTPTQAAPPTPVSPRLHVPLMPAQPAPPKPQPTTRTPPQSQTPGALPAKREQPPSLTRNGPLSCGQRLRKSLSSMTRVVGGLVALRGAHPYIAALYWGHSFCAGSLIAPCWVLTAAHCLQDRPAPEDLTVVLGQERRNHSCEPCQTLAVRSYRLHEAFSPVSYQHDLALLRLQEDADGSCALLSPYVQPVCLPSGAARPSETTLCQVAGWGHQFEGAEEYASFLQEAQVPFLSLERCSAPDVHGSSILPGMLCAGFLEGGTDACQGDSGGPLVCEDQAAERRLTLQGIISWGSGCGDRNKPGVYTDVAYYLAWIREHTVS

[4] = HIV-1 Vif–A3G interaction blockers – biochemical, TR-FRET, GST-Vif 1-94, biotin-A3G peptide, dose response retest, primary screen (AID 1117319); format: functional;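 further: TR-FRET signal of purified GST-Vif binding a biotinylated A3G peptide; inhibitors lower the FRET signal by blocking Vif and A3G binding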
[5] = target: Voltage-dependent T-type calcium channel subunit alpha-1H (Homo sapiens, UniProt O95180); format: functional;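 further: channel activity triggered by adding a high calcium stimulation buffer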
Chain of Voltage-dependent T-type calcium channel subunit alpha-1H (O95180 whole entry): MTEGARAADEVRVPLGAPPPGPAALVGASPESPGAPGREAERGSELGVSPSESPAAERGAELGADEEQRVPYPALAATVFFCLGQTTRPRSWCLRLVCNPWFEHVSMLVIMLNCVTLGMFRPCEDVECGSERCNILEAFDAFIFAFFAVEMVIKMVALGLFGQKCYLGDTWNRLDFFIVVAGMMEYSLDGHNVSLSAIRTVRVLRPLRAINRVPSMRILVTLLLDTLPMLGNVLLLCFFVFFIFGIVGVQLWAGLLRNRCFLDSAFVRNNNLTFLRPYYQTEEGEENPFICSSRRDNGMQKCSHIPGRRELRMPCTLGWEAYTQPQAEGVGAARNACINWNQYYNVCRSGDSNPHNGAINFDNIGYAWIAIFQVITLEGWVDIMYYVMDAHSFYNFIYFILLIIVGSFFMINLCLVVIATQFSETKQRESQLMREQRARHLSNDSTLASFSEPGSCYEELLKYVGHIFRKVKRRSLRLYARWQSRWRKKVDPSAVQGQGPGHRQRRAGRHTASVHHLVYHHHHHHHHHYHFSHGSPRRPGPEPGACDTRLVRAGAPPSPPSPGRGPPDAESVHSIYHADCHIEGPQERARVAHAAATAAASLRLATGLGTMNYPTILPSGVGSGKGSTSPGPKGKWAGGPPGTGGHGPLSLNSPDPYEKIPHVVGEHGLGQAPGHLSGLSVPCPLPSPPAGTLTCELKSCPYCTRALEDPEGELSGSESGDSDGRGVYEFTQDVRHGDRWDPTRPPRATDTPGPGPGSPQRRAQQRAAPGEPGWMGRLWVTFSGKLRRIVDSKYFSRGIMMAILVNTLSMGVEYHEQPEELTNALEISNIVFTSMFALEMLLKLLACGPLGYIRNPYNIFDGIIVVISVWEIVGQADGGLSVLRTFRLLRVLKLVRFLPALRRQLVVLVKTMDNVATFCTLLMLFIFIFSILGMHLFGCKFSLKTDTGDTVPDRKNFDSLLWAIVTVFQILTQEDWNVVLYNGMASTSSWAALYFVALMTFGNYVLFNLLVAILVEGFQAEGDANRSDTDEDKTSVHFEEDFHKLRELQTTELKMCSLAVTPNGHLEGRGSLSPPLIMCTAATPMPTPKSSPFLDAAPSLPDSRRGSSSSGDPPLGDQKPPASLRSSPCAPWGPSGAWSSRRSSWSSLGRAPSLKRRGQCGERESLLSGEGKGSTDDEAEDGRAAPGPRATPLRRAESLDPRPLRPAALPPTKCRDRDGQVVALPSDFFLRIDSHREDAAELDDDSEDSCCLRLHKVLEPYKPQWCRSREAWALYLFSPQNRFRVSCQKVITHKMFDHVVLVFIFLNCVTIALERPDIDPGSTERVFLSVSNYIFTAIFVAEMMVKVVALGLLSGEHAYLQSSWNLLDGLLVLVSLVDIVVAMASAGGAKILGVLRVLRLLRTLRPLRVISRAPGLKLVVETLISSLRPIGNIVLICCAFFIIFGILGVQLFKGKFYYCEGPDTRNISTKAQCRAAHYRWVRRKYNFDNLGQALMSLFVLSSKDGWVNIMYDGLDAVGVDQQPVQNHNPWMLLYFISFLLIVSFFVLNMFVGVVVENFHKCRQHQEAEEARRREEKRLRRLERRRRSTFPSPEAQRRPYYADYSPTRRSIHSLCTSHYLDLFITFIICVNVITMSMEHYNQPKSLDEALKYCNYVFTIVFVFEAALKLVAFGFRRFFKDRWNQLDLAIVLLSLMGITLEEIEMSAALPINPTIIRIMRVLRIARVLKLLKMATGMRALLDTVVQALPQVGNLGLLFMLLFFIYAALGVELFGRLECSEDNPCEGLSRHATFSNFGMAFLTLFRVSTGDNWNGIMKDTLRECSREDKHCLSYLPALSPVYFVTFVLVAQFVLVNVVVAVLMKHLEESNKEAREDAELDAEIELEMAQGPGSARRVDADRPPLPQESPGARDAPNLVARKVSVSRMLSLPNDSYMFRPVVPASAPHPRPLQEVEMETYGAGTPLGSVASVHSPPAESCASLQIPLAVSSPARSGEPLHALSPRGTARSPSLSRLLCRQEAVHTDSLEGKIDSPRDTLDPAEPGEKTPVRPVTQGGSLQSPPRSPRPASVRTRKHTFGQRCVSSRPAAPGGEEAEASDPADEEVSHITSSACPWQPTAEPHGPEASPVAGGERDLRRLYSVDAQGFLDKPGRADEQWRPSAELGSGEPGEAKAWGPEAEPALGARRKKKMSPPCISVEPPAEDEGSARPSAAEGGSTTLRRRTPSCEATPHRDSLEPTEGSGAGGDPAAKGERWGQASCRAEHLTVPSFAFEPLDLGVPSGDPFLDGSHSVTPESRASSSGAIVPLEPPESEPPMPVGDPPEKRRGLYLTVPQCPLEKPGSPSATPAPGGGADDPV

Protein skinhead-1 = target: T3, Protein skinhead-1 (Caenorhabditis elegans, UniProt P34707); format: functional
T3 sequence (P34707 whole entry): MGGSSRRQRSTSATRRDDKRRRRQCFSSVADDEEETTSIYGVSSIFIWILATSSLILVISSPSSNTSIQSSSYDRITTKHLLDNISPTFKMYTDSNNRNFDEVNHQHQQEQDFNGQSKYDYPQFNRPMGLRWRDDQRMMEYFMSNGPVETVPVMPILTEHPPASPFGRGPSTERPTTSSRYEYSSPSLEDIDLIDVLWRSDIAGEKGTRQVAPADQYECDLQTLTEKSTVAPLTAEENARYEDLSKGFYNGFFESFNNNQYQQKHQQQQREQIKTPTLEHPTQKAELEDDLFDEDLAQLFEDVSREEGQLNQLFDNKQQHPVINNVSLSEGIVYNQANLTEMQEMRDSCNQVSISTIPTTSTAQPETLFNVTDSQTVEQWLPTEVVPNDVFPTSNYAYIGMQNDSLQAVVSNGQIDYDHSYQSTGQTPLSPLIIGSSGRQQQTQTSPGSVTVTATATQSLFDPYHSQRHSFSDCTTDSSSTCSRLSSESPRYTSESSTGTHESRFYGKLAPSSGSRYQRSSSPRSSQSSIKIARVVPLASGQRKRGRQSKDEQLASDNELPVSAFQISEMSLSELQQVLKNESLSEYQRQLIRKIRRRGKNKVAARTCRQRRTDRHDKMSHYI

[6] = general mammalian cell viability loss – inhibitor set, cherry-pick, set 2, cytotoxicity control for miR-122 modulator project, dose response (AID 720697); format: functional, cell-based
cells [7] = format: functional, cell-based
cells [8] = format: functional, cell-based; remark: listed apart in the source
[9] = target: T4, Mannose-6-phosphate isomerase (Homo sapiens, UniProt P34949); assay: MPI inhibition at elevated mannose 6-phosphate – biochemical, fluorescence intensity, high mannose 6-phosphate, primary screen (AID 1220)
T4 sequence (P34949 whole entry): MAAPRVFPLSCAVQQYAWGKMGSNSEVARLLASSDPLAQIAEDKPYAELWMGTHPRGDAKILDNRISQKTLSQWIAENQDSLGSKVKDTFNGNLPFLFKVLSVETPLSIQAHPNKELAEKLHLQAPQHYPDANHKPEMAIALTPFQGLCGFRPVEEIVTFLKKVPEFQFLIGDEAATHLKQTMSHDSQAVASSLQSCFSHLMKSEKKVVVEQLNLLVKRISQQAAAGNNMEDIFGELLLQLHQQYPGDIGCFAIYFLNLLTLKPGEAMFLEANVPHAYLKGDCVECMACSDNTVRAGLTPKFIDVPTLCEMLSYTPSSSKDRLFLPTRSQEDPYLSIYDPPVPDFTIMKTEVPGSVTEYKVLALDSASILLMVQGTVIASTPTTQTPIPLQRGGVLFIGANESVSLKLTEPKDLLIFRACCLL

[10] = target: Disintegrin and metalloproteinase domain-containing protein 17 (Homo sapiens, UniProt P78536); assay: exosite inhibitors of ADAM17, dose response, biochemical (AID 743260)
Chain of Disintegrin and metalloproteinase domain-containing protein 17 (P78536 whole entry, the tested form may be a part): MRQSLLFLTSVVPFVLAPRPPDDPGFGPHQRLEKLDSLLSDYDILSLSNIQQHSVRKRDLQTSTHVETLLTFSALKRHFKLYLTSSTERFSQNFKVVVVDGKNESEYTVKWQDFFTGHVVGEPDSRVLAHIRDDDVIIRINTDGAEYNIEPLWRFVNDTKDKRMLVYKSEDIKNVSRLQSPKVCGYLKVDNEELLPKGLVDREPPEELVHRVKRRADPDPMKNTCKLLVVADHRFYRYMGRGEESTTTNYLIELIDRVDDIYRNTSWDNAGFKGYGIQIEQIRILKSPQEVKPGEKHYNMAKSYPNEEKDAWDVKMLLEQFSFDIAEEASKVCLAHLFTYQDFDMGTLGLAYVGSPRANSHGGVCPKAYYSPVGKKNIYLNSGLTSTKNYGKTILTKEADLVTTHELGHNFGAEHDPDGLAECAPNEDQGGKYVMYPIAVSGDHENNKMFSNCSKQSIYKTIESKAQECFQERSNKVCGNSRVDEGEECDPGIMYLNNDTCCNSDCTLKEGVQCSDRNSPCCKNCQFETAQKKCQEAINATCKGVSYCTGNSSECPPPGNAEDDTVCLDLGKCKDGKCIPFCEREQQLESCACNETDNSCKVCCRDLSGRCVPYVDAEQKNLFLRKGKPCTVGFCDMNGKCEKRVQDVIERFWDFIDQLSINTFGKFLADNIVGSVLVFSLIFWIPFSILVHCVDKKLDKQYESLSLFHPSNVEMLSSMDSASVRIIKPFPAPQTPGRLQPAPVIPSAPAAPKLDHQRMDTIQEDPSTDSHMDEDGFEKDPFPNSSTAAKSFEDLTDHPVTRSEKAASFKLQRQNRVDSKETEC

[11] = inhibition of ADAM10 peptide cleavage – biochemical, FRET peptide substrate, recombinant human ADAM10, selectivity assay for ADAM17 exosite inhibitor project, dose response (AID 743259);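 further: ADAM10 enzyme cleaving a FRET peptide substrate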
cells [12] = format: functional
[13] = target: T5, Methionyl-tRNA synthetase, putative (Trypanosoma brucei brucei, UniProt Q38C91); format: functional, Trypanosoma brucei brucei strain 927/4 GUTat10.1
T5 sequence (Q38C91 whole entry): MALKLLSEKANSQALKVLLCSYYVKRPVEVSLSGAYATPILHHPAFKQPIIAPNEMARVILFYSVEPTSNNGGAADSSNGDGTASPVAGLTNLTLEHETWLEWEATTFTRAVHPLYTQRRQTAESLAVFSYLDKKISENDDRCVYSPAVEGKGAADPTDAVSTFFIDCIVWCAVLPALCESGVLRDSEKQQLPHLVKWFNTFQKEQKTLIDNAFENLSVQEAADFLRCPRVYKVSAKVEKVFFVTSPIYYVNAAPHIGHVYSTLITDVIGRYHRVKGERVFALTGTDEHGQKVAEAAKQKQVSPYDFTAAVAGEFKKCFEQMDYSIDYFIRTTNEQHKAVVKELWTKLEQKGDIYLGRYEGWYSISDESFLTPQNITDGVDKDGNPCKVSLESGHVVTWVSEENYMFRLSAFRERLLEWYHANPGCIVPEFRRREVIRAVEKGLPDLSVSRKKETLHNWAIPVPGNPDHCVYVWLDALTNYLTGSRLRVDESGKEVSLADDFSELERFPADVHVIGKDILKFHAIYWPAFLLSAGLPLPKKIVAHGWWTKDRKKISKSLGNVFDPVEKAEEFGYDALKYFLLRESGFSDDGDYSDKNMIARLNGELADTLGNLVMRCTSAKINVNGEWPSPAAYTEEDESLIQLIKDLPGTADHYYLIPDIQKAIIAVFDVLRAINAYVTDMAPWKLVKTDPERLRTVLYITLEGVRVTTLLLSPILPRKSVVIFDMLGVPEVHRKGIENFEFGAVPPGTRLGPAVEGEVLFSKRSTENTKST

[14] = Counterscreen for inhibitors of Trypanosoma brucei methionyl tRNA synthetase (MetRS): Luminescence-based cell-based high throughput dose response assay to identify compounds that are cytotoxic to Jurkat human T lymphocyte cells.; format: functional
[15] = target: T5, Methionyl-tRNA synthetase, putative; format: functional, Trypanosoma brucei brucei strain 927/4 GUTat10.1; remark: listed apart in the source
[16] = target: T6, Rac GTPase-activating protein 1 (Homo sapiens, UniProt Q9H0H5); assay: blockers of MgcRacGAP-driven Rac1 GTP hydrolysis – biochemical, ADP Hunter fluorescence, primary and confirmatory, confirmation (AID 624330); format: functional
T6 sequence (Q9H0H5 whole entry): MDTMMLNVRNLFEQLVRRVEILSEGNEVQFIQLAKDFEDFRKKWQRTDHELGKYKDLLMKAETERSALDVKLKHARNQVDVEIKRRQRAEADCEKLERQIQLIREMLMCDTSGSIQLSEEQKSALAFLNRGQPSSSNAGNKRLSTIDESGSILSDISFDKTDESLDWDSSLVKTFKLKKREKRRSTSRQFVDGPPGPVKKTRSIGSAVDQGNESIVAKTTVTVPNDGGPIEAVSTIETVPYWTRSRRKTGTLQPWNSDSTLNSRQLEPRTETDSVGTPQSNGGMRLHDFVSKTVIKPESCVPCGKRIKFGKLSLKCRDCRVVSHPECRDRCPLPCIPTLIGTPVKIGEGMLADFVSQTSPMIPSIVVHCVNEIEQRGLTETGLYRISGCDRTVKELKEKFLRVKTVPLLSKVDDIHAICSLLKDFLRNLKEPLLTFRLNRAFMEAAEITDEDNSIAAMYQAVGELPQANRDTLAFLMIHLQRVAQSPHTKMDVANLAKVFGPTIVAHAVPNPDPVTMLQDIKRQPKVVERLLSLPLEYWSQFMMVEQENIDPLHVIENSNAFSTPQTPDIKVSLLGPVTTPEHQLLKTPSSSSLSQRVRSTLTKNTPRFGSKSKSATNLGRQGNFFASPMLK

## O=C(Nc1ccccc1)Nc1cc(Cl)cc(Cl)c1
[1]
  EC50: 10.6 µM (active)
Streptokinase A
  EC50: 16.8 µM (active)
Streptococcus
  EC50: 48.6 µM (active)
[2]
  AC50: 4.3 µM (active)
[3]
  AC50: 17.2 µM (active)

## Cc1cc(-n2ccnc2)n2c(nc3ccccc32)c1C#N
Coagulation factor XII
  IC50: > 50 µM (inactive)
[4]
  IC50: > 100 µM (active)

## O=C(Nc1ccc(Cl)c(C(F)(F)F)c1)c1ccco1
[5]
  EC50: 10.6 µM (active)
Protein skinhead-1
  IC50: 45 µM (active)
[6]
  AC50: 4.01 µM (active)

## Cn1nnnc1SCC(=O)NCc1cccc(C(=O)O)c1
[3]
  AC50: 10.5 µM (active)

## CCOC(=O)C1CCCN(C(=O)c2ccc(CS(=O)(=O)c3ccc(Br)cc3)o2)C1 (stereo not given)
[4]
  IC50: > 100 µM (active)

## CC(=O)Nc1ccc(NC(=O)Nc2ccccc2)cc1
Cells [7]
  IC50: > 29.9 µM (inactive)
Cells [8]
  EC50: > 29.9 µM (inactive)

## Cc1sc2nc3ccc(N4CCCC4)nn3c(=O)c2c1C
[9]
  IC50: > 50 µM (not active)

## CCCCc1cc(=O)oc2cc(C)cc(OC(C)C(=O)O)c12 (stereo not given)
[6]
  AC50: 1.08 µM (active)

## CN(C)S(=O)(=O)c1cccc(NC(=O)COC(=O)c2cccc(S(=O)(=O)N3CCc4ccccc4C3)c2)c1
[10]
  IC50: > 69.5 µM (inactive)
[11]
  IC50: > 69.5 µM (inactive)

## O=C1N(Cc2cccnc2)C[C@@H]2C[C@@H](c3ccc4nsnc4c3)N3CCC[C@@]123
[4]
  IC50: > 100 µM (active)

## Cc1cccc(N2CCN(C(=O)c3ccc(C[S+]([O-])Cc4ccc(Cl)cc4)o3)CC2)c1C (stereo not given)
[10]
  IC50: > 69.5 µM (inactive)
[11]
  IC50: > 7.72 µM (active)

## Cn1ccnc1Sc1ccc(/C=N/NC(=O)c2ccccc2O)cc1[N+](=O)[O-]
[4]
  IC50: > 100 µM (active)

## O=C(C[C@@H]1C=C[C@H](NC(=O)Cc2ccccn2)[C@@H](CO)O1)NCCc1ccccc1
Cells [7]
  IC50: > 29.9 µM (inactive)
Cells [8]
  EC50: > 29.9 µM (inactive)

## CO[C@H]1CN(C)C(=O)c2cc(NC(=O)c3ccccc3F)ccc2OC[C@@H](C)N(C)C[C@@H]1C
[6]
  AC50: 10.6 µM (active)

## O=C(CSc1nnc(COc2ccccc2)n1-c1ccc(Cl)cc1)Nc1ccccc1-c1ccccc1
[10]
  IC50: > 69.5 µM (inactive)
[11]
  IC50: > 69.5 µM (inactive)

## O=C(C/C=N\OCc1ccc([N+](=O)[O-])cc1)Nc1ccc(Cl)cc1
Cells [12]
  IC50: 25.5 µM (active)
[13]
  IC50: 2.56 µM (active)
[14]
  IC50: 83.3 µM (inactive)
[15]
  IC50: 1.73 µM (active)

## O=C(CC(=O)Nc1ccc(Cl)c(Cl)c1)N/N=C/c1ccc(O)cc1
[13]
  IC50: 25.3 µM (inactive)
[14]
  IC50: 83.3 µM (inactive)
[15]
  IC50: 43.9 µM (inactive)
[16]
  IC50: 74 µM (active)
